Values after ≈ are worked out from the molar mass of the structure shown.
Legend:
[1] = tested on: S. aureus ATCC 13709; test: MIC, S. aureus ATCC 13709; type: cell-based; details: for MIC: Staphylococcus aureus, ATCC13709, S. aureus, read-out: MIC Sa
[2] = tested on: E. coli ATCC 25922; test: MIC, E. coli ATCC 25922; type: cell-based; details: for MIC: Escherichia coli, ATCC25922, E. coli, read-out: MIC Ec
[3] = S. aureus, Alamar Blue read after overnight incubation at 35° C.
[4] = E. coli, Alamar Blue read after overnight incubation at 35° C.
[5] = Alamar Blue read after overnight incubation at 35° C.

| SMILES | MIC Sa [1, 3] | MIC Ec [2, 4] | MIC [1, 5] | MIC [2, 5] | other results |
| --- | --- | --- | --- | --- | --- |
| CNc1cc(F)cc2c1[nH]c1nc(Nc3cnc4c(c3)nnn4C(C)C)nc(N3C[C@H]4CC3C[C@H]4N)c12 | – | – | – | – | SA MIC ([1]; Table 13, L = NH): ≤ 0.5 µg/mL; EC MIC ([2]; Table 13, L = NH): 1 µg/mL |
| CNc1cc(F)cc2c1[nH]c1nc(SCc3cccnc3)nc(N3C[C@H]4C[C@@H]3C[C@H]4N)c12 [Compound 10.49] | – | – | – | – | MIC Sa ([1]; Table 18, Sa): ≤ 0.5 µg/mL; MIC Ec ([2]; Table 18, Ec): 2 µg/mL (≈ 4.45 µM) |
| Nc1cccc2c1[nH]c1nc(Sc3cnc4cccnc4c3)nc(N3CC4C(N)C4C3)c12 (centres unmarked) [Compound 1.09] | 64 µg/mL (≈ 145 µM) | >64 µg/mL | – | – | – |
| CNc1cccc2c1[nH]c1nc(Sc3cnc4cccnc4c3)nc(N3CCC(CO)C3)c12 (centres unmarked) [Compound 1.53] | – | – | ≤ 0.5 µg/mL | 8 µg/mL (≈ 17.5 µM) | – |
| CNc1cc(F)c(Cl)c2c1[nH]c1nc(Oc3cnc4ccnn4c3)nc(N3C[C@H]4C[C@@H]3C[C@H]4N)c12 [Compound 10.85] | – | – | – | – | MIC Sa ([1]; Table 18, Sa): ≤ 0.5 µg/mL; MIC Ec ([2]; Table 18, Ec): ≤ 0.5 µg/mL |
| CNc1cc(F)cc2c1[nH]c1nc(Oc3cnn4ccnc4c3)nc(N3C[C@H]4C[C@@H]3C[C@H]4N)c12 [Compound 10.62] | – | – | – | – | MIC Sa ([1]; Table 18, Sa): ≤ 0.5 µg/mL; MIC Ec ([2]; Table 18, Ec): ≤ 0.5 µg/mL |
| CNc1cc(F)cc2c1[nH]c1nc(NCc3cnc(C)nc3)nc(N3C[C@H]4C[C@@H]3C[C@H]4N)c12 [Compound 10.60] | – | – | – | – | MIC Sa ([1]; Table 18, Sa): 8 µg/mL (≈ 17.9 µM); MIC Ec ([2]; Table 18, Ec): 16 µg/mL (≈ 35.8 µM) |
| CNc1cc(F)cc2c1[nH]c1nc(Oc3cnc(C)nc3)nc(N3C[C@H]4C[C@@H]3C[C@H]4NCCO)c12 [Compound 10.114] | – | – | – | – | MIC Sa ([1]; Table 18, Sa): ≤ 0.5 µg/mL; MIC Ec ([2]; Table 18, Ec): ≤ 0.5 µg/mL |
| CNc1cc(Cl)cc2c1[nH]c1nc(Oc3cnc(C(C)O)nc3)nc(N3C[C@H]4C[C@@H]3C[C@H]4N)c12 (some centres unmarked) [Compound 10.33] | – | – | – | – | MIC Sa ([1]; Table 18, Sa): ≤ 0.5 µg/mL; MIC Ec ([2]; Table 18, Ec): ≤ 0.5 µg/mL |
| CNc1cc(F)cc2c1[nH]c1nc(Oc3cnc4c(c3)C(=O)OC4(C)C)nc(N3C[C@H]4C[C@@H]3C[C@H]4N)c12 [Compound 10.72] | – | – | – | – | MIC Sa ([1]; Table 18, Sa): ≤ 0.5 µg/mL; MIC Ec ([2]; Table 18, Ec): ≤ 0.5 µg/mL |
| COc1cccc2c1[nH]c1nc(Sc3cnc4ccc[n+]([O-])c4c3)nc(N3CC(N)C3)c12 [Compound 1.77] | – | – | 2 µg/mL (≈ 4.49 µM) | > 64 µg/mL | – |
| CNc1cccc2c1[nH]c1nc(Oc3cnc(C)nc3)cc(N3CC[C@@H](N)C3)c12 [Compound 3.5] | – | – | 0.25 µg/mL (≈ 0.642 µM) | ≤ 0.5 µg/mL | – |
| CNc1cccc2c1[nH]c1nc(Sc3cnc4cccnc4c3)nc(N3CC4C(N)C4C3)c12 (centres unmarked) [Compound 1.12] | – | – | ≤ 0.5 µg/mL | 1 µg/mL (≈ 2.2 µM) | – |
| CNc1cccc2c1[nH]c1nc(Sc3cnc4cccnc4c3)nc(N3CC4CNCC4C3)c12 (centres unmarked) [Compound 1.55] | – | – | 1 µg/mL (≈ 2.13 µM) | 8 µg/mL (≈ 17.1 µM) | – |
| CNc1cc(F)cc2c1[nH]c1nc(Oc3cnc4c(C(C)O)cnn4c3)nc(N3C[C@H]4C[C@@H]3C[C@H]4N)c12 (some centres unmarked) [Compound 10.55] | – | – | – | – | MIC Sa ([1]; Table 18, Sa): ≤ 0.5 µg/mL; MIC Ec ([2]; Table 18, Ec): 1 µg/mL (≈ 1.99 µM) |
| CCNc1cccc2c1[nH]c1nc(Sc3cnc4cccnc4c3)nc(N3CC4C(N)C4C3)c12 (centres unmarked) [Compound 1.11] | – | – | ≤ 0.5 µg/mL | 8 µg/mL (≈ 17.1 µM) | – |
| CNc1cccc2c1[nH]c1nc(Sc3cnc4cccnc4c3)nc(N3C[C@H](N)C[C@@H]3CO)c12 [Compound 1.68] | – | – | 16 µg/mL (≈ 33.9 µM) | 32 µg/mL (≈ 67.7 µM) | – |

The next lines start with results.

| MIC Sa [1, 3] | MIC Ec [2, 4] | MIC [1, 5] | MIC [2, 5] | SMILES | other results |
| --- | --- | --- | --- | --- | --- |
| – | – | 8 µg/mL (≈ 19.6 µM) | 32 µg/mL (≈ 78.5 µM) | CNc1ncnc2c1[nH]c1nc(Oc3cncc(F)c3)nc(N3CC4C(N)C4C3)c12 (centres unmarked) [Compound 7.04] | – |
| ≤0.5 µg/mL | 1 µg/mL (≈ 2.23 µM) | – | – | CNc1cc(F)cc2c1[nH]c1nc(Oc3cnc(C)nc3)nc(N3C4CCC3CC(N)C4)c12 (centres unmarked) [Compound 4.091] | – |
| ≤0.5 µg/mL | ≤0.5 µg/mL | – | – | CNc1ncc(Oc2nc(N3CC[C@@H](N)C3)c3c(n2)[nH]c2c(NC)cc(F)cc23)cn1 [Compound 4.219] | – |
| – | – | > 64 µg/mL | 32 µg/mL (≈ 84.8 µM) | CNc1nccc2c1[nH]c1nc(Oc3cncnc3)nc(N3CC[C@@H](N)C3)c12 [Compound 7.02] | – |
| ≤0.5 µg/mL | ≤0.5 µg/mL | – | – | CNc1ncc(Oc2nc(N3CCC4(CC4N)C3)c3c(n2)[nH]c2c(NC)cc(F)cc23)cn1 (centres unmarked) [Compound 4.220] | – |
| ≤0.5 µg/mL | ≤0.5 µg/mL | – | – | CNc1cc(F)cc2c1[nH]c1nc(Oc3cnc(C)nc3)nc(N3CC4CC(N)CC4C3)c12 (centres unmarked) [Compound 4.104] | – |
| ≤0.5 µg/mL | ≤0.5 µg/mL | – | – | CNc1cc(F)cc2c1[nH]c1nc(Oc3cnc(SC)nc3)nc(N3CC4C(N)C4C3)c12 (centres unmarked) [Compound 4.193] | – |
| ≤0.5 µg/mL | 2 µg/mL (≈ 4.1 µM) | – | – | CNc1cc(F)cc2c1[nH]c1nc(Oc3cncc(-c4nnnn4C)c3)nc(N3CC4C(N)C4C3)c12 (centres unmarked) [Compound 4.168] | – |
| ≤0.5 µg/mL | ≤0.5 µg/mL | – | – | CNc1cc(F)cc2c1[nH]c1nc(Oc3cnc(SC)nc3)nc(N3CC4C(CN)C4C3)c12 (centres unmarked) [Compound 4.197] | – |
| ≤0.5 µg/mL | ≤0.5 µg/mL | – | – | CNc1cc(F)cc2c1[nH]c1nc(Oc3cnc(SC)nc3)nc(N3CC4CCNC4C3)c12 (centres unmarked) [Compound 4.198] | – |
| – | – | ≤ 0.5 µg/mL | 1 µg/mL (≈ 2.4 µM) | CNc1cc(F)cc2c1[nH]c1nc(Oc3cnc(C)nc3)nc(-c3cccnc3N)c12 [Compound 4.448] | – |
